The text below walks through data of patent US10647680B2, “Urea compound, preparation method therefor and medical use thereof” (Ancureall Pharmaceutical (Shanghai) Co., Ltd., priority 2016, dated 2020).

Experiment [1] has as its system MV4-11 (FLT3 ITD+/+ mutant type). The experiment is described as follows: In vitro growth inhibition (GI50), MV4-11. Type of experiment: cell-based, human. The following applies: Homo sapiens, MV4-11; Cell lines of leukemia; read-out: GI 50 MV4-11 FLT3 (ITD +/+).
In experiment [2] the test system is MOLM-13 (FLT3 ITD+/− mutant type). The experiment in a line: In vitro growth inhibition (GI50), MOLM-13. Type of experiment: cell-based, human. The settings on record: Homo sapiens, MOLM-13; Cell lines of leukemia; read-out: GI 50 MOLM-13 FLT3 (ITD+/−).
Experiment [3] has as its system RS4; 11 (FLT3 wild type). The experiment is described as follows: In vitro growth inhibition (GI50), RS4; 11. Type of experiment: cell-based, human. The following applies: Homo sapiens, RS4-11; Cell lines of leukemia; read-out: GI 50 RS4: 11 FLT3 (WT).
Experiment [4] has as its system K562 (FLT3 negative expression, positive expression of BCR-ABL fusion protein). The experiment in a line: In vitro growth inhibition (GI50), K562. Type of experiment: cell-based. The settings on record: Homo sapiens, Cell lines of leukemia, read-out: GI 50 K562 BCR-ABL.
Experiment [5] has as its system RAMOS (positive expression of Brutons tyrosine protein kinase). The experiment in a line: In vitro growth inhibition (GI50), RAMOS. Type of experiment: cell-based. The settings on record: Homo sapiens, Cell lines of leukemia, read-out: GI 50 Ramos BTK.
The test system of experiment [6] is U937 (FLT3 wild-type). The experiment is described as follows: In vitro growth inhibition (GI50), U937. Type of experiment: cell-based. The settings on record: Homo sapiens, U-937; Cell lines of leukemia; read-out: GI 50 U937 FLT 3(WT).
Experiment [7] relates to Kasumi-1 (c-Kit N822K mutant type). The experiment in a line: In vitro growth inhibition (GI50), Kasumi-1. The settings on record: Homo sapiens, Cell lines of leukemia, read-out: GI 50 Kasumi-1 Kit (N822K). Type of experiment: cell-based. A digest of the protocol: (§1)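 Cells in RPMI1640 with 10% FBS, seeded at 5–10×10^4 cells/mL, exposed next day to compound at 5,000 nM down to 0.01 nM (2- or 10-fold dilutions, ≤1% solvent) for 3–5 days at 37 °C. CCK8 absorbance at 450 nm, growth rate relative to pre-treatment and solvent controls, GI50 from concentration–growth curve.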

For experiment [8], the system named is KG-1 (expressing FGFR1OP2-FGFR1 fusion protein). The experiment in a line: In vitro growth inhibition (GI50), KG-1. The following applies: Homo sapiens; Cell lines of leukemia; read-out: GI 50 KG-1 FGFR1OP 2-FGFR1. Type of experiment: cell-based.
Experiment [9] deals with HL-60 (FLT3 wild type). The experiment in a line: In vitro growth inhibition (GI50), HL-60. The following applies: Homo sapiens, Cell lines of leukemia, read-out: GI 50 HL60 FLT3 (WT). Type of experiment: cell-based. The procedure, abridged:
as §1

The subject of experiment [10] is OCI-AML3 (NPMc+ mutant type). The experiment in a line: In vitro growth inhibition (GI50), OCI-AML3. Type of experiment: cell-based. The following applies: Homo sapiens, OCI-AML-3; Cell lines of leukemia; read-out: GI 50 OCI- AML3 NPMc+.

With `Cc1ccc(-n2nc(C(C)(C)C)cc2NC(=O)Nc2ccc(-n3cnc4ccccc43)cc2)cc1` [Compound 105, 1-(4-benzimidazol-1-yl-phenyl)-3-(5-tert-butyl-2-p-tolyl-2H-pyrazol-3-yl)-urea], the GI50 in [1] was 10 to 100 nM; in [2], 10 to 100 nM; in experiment [3], more than 1000 nM; in [4], more than 1000 nM; in experiment [5], more than 1000 nM; in experiment [6], more than 1000 nM. For the same compound, the GI50 in experiment [7], in experiment [8], in experiment [9] and in [10] was more than 1000 nM each time.
Consider `COc1ccc(-n2nc(C(C)(C)C)cc2NC(=O)Nc2ccc(-n3cnc4ccccc43)cc2)cc1` [Compound 106, 1-(4-benzimidazol-1-yl-phenyl)-3-[5-tert-butyl-2-(4-methoxyl-phenyl)-2H-pyrazol-3-yl]-urea], for which the GI50 is 10 to 100 nM in experiment [1]; 10 to 100 nM in experiment [2]; more than 1000 nM in experiment [3]; more than 1000 nM in experiment [4]; more than 1000 nM in experiment [5]; more than 1000 nM in experiment [6]. The GI50 in experiment [7], in experiment [8], in experiment [9] and in [10] was more than 1000 nM in each case.
On to `CC(C)(C)c1cc(NC(=O)Nc2ccc(-n3cnc4ccccc43)cc2)n(-c2ccc(OC(F)(F)F)cc2)n1` [Compound 107, 1-(4-benzimidazol-1-yl-phenyl)-3-[5-tert-butyl-2-(4-trifluoromethoxy-phenyl)-2H-pyrazol-3-yl]-urea], for which the GI50 in [1] was 10 to 100 nM; in [2], 10 to 100 nM; in [3], more than 1000 nM; in [4] it was more than 1000 nM; in experiment [5] it was more than 1000 nM; in experiment [6], more than 1000 nM. Besides, the GI50 in [7], in experiment [8], in experiment [9] and in experiment [10] was more than 1000 nM throughout.
`CC(C)(C)c1cc(NC(=O)Nc2ccc(-n3cnc4ccccc43)cc2)n(-c2ccc(F)cc2)n1` [Compound 108, 1-(4-benzimidazol-1-yl-phenyl)-3-[5-tert-butyl-2-(4-fluoro-phenyl)-2H-pyrazol-3-yl]-urea]: the GI50 is 10 to 100 nM in [1]; 10 to 100 nM in [2]; 100 to 1000 nM in [3]; 100 to 1000 nM in [4]; more than 1000 nM in experiment [5]; more than 1000 nM in [6]. The GI50 in experiment [7] was more than 1000 nM; in experiment [8], more than 1000 nM; in experiment [9], more than 1000 nM; in experiment [10], 100 to 1000 nM.
For the compound `CC(C)(C)c1cc(NC(=O)Nc2ccc(-n3cnc4ccccc43)cc2)n(-c2ccccc2F)n1` [Compound 109, 1-(4-benzimidazol-1-yl-phenyl)-3-[5-tert-butyl-2-(2-fluoro-phenyl)-2H-pyrazol-3-yl]-urea], the GI50 in experiment [1] is 1 to 10 nM; in [2], 1 to 10 nM; in experiment [3] it was 100 to 1000 nM; in experiment [4], 100 to 1000 nM; in experiment [5], more than 1000 nM; in [6], more than 1000 nM. For the same compound, the GI50 in experiment [7], in experiment [8], in experiment [9] and in experiment [10] was more than 1000 nM each time.
In the case of `CC(C)(C)c1cc(NC(=O)Nc2ccc(-n3cnc4ccccc43)cc2)n(-c2ccccn2)n1` [Compound 110, 1-(4-benzimidazol-1-yl-phenyl)-3-(5-tert-butyl-2-pyridin-2-yl-2H-pyrazol-3-yl)-urea], the GI50 is 10 to 100 nM in experiment [1]; 10 to 100 nM in experiment [2]; more than 1000 nM in experiment [3]; more than 1000 nM in experiment [4]; more than 1000 nM in experiment [5]; more than 1000 nM in experiment [6]. Besides, the GI50 in experiment [7], in [8], in experiment [9] and in experiment [10] was more than 1000 nM throughout.
